# Experimental data as given in patent US11590139B2, “Substituted aminopurine compounds, compositions thereof, and methods of treatment therewith” (Signal Pharmaceuticals, LLC, priority 2014, dated 2023).
# Read-outs that look alike come from different tables or passages of the source.
# Tested on: Lox-IMVI melanoma cell line
# Experiment: Lox-IMVI anti-proliferative assay (growth inhibition, Cell Titer-Glo)
# Assay type: cell-based, human
# Conditions: Homo sapiens
# Method: Determination of the Growth Inhibitory Effect of Aminopurine Compounds. The Lox-IMVI melanoma cell line (Source: NCI-DCTD, catalog No. 0507283) was maintained and tested in RPMI+10% FBS. The seeding density for the cell line was optimized to ensure assay linearity in 384-well plates.
# Increasing concentrations of Aminopurine Compound (0.5 nM to 10 μM) were spotted in a 10-point serial dilution fashion (3-fold dilution) in duplicate within the plate via an acoustic dispenser (EDC ATS-100) into an empty 384-well plate. The dimethyl sulfoxide (DMSO) concentration was kept constant for a final assay concentration of 0.2% DMSO. Prior to testing, cells were grown and expanded in culture flasks to provide sufficient amounts of starting material. Cells were then diluted to their desired densities and added directly to the compound-spotted 384-well plates. Cells were allowed to grow for 72 hours in 5% CO2 at 37° C. At the time when exposure of cells to compound began (t0), initial cell number was assessed via a viability assay (Cell Titer-Glo) by quantifying the level of luminescence generated by adenosine-5′-triphosphate (ATP) present in viable cells. After 72 hours, cell viability of compound-treated cells was assessed via Cell Titer-Glo Luminescent Cell Viability Assay (Promega Corporation, Madison, Wis.) and read for luminescence.
# All data was normalized and represented as a percentage of the DMSO-treated control cells after 72 h. Results were expressed as a IC50 value, which is the compound concentration required to inhibit 50% of the untreated control cells during the 72 hours of treatment.
# A Four Parameter Logistic Model (Sigmoidal Dose-Response Model) was used to determine the compound's IC50. y=(A+((B−A)/(1+((C/x)^D))))
# wherein: • A=YMin • B=YMax • C=EC50 • D=Hill Slope • IC50 is the compound concentration when Y=50% of DMSO control • Y=Luminescence unit
# All inhibition curves were processed and evaluated using XLFit and Activity Base (IDBS).
# [1] = IC50 activity level in the cell-based Lox-IMVI anti-proliferative assay, read-out: Activity
# [2] = Lox-IMVI anti-proliferative assay, IC50 activity level, read-out: Activity
IC50 [1],SMILES,further results
> 1000 nM,"NC(=O)[C@H]1CC[C@@H](n2c(Nc3c(F)ccc(Cl)c3F)nc3cnc(N[C@H]4COC[C@@H]4O)nc32)CC1 [Example 318, (1R,4s)-4-(8-(3-chloro-2,6-difluorophenylamino)-2-((3S,4R)-4-hydroxytetrahydrofuran-3-ylamino)-9H-purin-9-yl)cyclohexanecarboxamide]",
250 to 500 nM,"NC(=O)[C@H]1CC[C@@H](n2c(Nc3c(F)cc(Cl)cc3Cl)nc3cnc(NC4CC(F)(F)C4)nc32)CC1 [Example 230, (1s,4s)-4-(8-(2,4-dichloro-6-fluorophenylamino)-2-(3,3-difluorocyclobutylamino)-9H-purin-9-yl)cyclohexanecarboxamide]",
,"CC(=O)N1CCC[C@@H](Nc2ncc3nc(Nc4c(F)cc(Cl)cc4F)n([C@H]4CC[C@@H](C(N)=O)CC4)c3n2)C1 [Example 713, (1S,4s)-4-(2-((R)-1-acetylpiperidin-3-ylamino)-8-(4-chloro-2,6-difluorophenylamino)-9H-purin-9-yl)cyclohexanecarboxamide]","IC50 (Lox-IMVI melanoma cell line, anti-proliferative assay, read-out: Activity (IC50 activity level)): > 1000 nM"
,"N#Cc1cc(F)c(Nc2nc3cnc(N[C@H]4CCCC[C@H]4O)nc3n2[C@H]2CC[C@@H](C(N)=O)CC2)c(Cl)c1 [Example 517, (1R,4s)-4-(8-(2-chloro-4-cyano-6-fluorophenylamino)-2-((1S,2R)-2-hydroxycyclohexylamino)-9H-purin-9-yl)cyclohexanecarboxamide]",IC50 [2]: > 1000 nM
> 1000 nM,"NC(=O)[C@H]1CC[C@@H](n2c(Nc3c(Cl)cccc3Cl)nc3cnc(NC4COC4)nc32)CC1 [Example 56, (1s,4s)-4-(8-(2,6-dichlorophenylamino)-2-(oxetan-3-ylamino)-9H-purin-9-yl)cyclohexanecarboxamide]",
> 1000 nM,NC(=O)[C@H]1CC[C@@H](n2c(Nc3c(F)cccc3F)nc3cnc(NC4CCC4)nc32)CC1 [Example 42],
250 to 500 nM,"NC(=O)[C@H]1CC[C@@H](n2c(Nc3c(F)cc(Cl)cc3Cl)nc3cnc(NC4CC5(COC5)C4)nc32)CC1 [Example 195, (1s,4s)-4-(2-(2-oxaspiro[3.3]heptan-6-ylamino)-8-(2,4-dichloro-6-fluorophenylamino)-9H-purin-9-yl)cyclohexanecarboxamide]",
500 to 1000 nM,"NC(=O)[C@H]1CC[C@@H](n2c(Nc3cc(F)c(Cl)cc3F)nc3cnc(NC4CCOCC4)nc32)CC1 [Example 70, (1s,4s)-4-(8-(4-chloro-2,5-difluorophenylamino)-2-(tetrahydro-2H-pyran-4-ylamino)-9H-purin-9-yl)cyclohexanecarboxamide]",
> 1000 nM,"NC(=O)[C@H]1CC[C@@H](n2c(Nc3c(Cl)cccc3Cl)nc3cnc(NC4COCC4O)nc32)CC1 (stereo partly drawn) [Example 180, (1s,4s)-4-(8-(2,6-dichlorophenylamino)-2-(4-hydroxytetrahydrofuran-3-ylamino)-9H-purin-9-yl)cyclohexanecarboxamide]",
,"C[C@]1(C(N)=O)CC[C@@H](n2c(Nc3c(F)cc(Cl)cc3Cl)nc3cnc(NC4CCCC4)nc32)CC1 [Example 557, (1s,4s)-4-(2-(cyclopentylamino)-8-(2,4-dichloro-6-fluorophenylamino)-9H-purin-9-yl)-1-methylcyclohexanecarboxamide]",IC50 [2]: < 250 nM
500 to 1000 nM,"NC(=O)[C@H]1CC[C@@H](n2c(Nc3c(Cl)cc(Cl)cc3Cl)nc3cnc(N[C@H]4CC[C@H](O)C4)nc32)CC1 [Example 330, (1R,4s)-4-(2-((1S,3S)-3-hydroxycyclopentylamino)-8-(2,4,6-trichlorophenylamino)-9H-purin-9-yl)cyclohexanecarboxamide]",
,"C[C@]1(C(N)=O)CC[C@@H](n2c(Nc3c(Cl)cc(F)cc3Cl)nc3cnc(NC4CCC(F)(F)CC4)nc32)CC1 [Example 526, (1s,4s)-4-(8-(2,6-dichloro-4-fluorophenylamino)-2-(4,4-difluorocyclohexylamino)-9H-purin-9-yl)-1-methylcyclohexanecarboxamide]",IC50 [2]: < 250 nM
